The results in this text go back to article PMC6789111, “Crossing the blood-brain-barrier with nanoligand drug carriers self-assembled from a phage display peptide” (Nature Communications, 2019).

Peptide text beside a SMILES is read from it. * marks the point of attachment. 5FAM = O=C1OC2(c3ccc(O)cc3Oc3cc(O)ccc32)c2ccc(C(=O)*)cc21

The nature of data set [1]: Blood count after intravenous injection. It counts as in vivo, ICR mice. Particulars: mouse, in vivo, iv. An excerpt: Supplementary Table 2. Blood count following intravenous injection of FAM-CGY NLCs in free form and complexed with siRNA
Samples WBC RBC HGB HCT MCV MCH MCHC PLT
WBC: white blood cell; RBC: red blood cell count; HGB: haemoglobin; HCT: haematocrit; MCV: mean corpuscular volume; MCH: mean corpuscular haemoglobin; MCHC: mean corpuscular
significance (*p < 0.05). The results are mean ± s.d. (n = 3 animals per group). The experiment was repeated twice with identical results. The siRNA represent BACE-1-specific siRNA. The
final concentration of the peptide conjugate was 10 µM and that of siRNA was 48 nM, based on blood volume calculation equivalent to 6% of the body weight. LPS = lipopolysaccharide.

In data set [2] the test system is Iba-1. The data set can be described thus: ELISA of Iba-1 in hippocampus. Particulars: Ave. It counts as in vivo, ICR mice. On the technique in general: An ELISA detects its analyte on a solid surface through an enzyme-linked reagent.
The subject of data set [3] is hCMEC/D3 cells. Nature of the data set: Cell uptake by flow cytometry. Format: cell-based, human. The conditions noted are these: 5 µM, foetal bovine serum, 16 h, 37 °C (Supplementary Fig. 12). The protocol:
Peptide internalisation was measured by flow cytometry (FACS ArrayTM Cell Analysis, Becton, Dickinson and Company, NJ, USA). Cells (1 × 10^5 cm^−2) were seeded on 24-well plates and grown 1 day at 37 °C and 5% CO2 in order to reach 60–70% confluence. The cells were washed 3 times with pre-heated PBS. The uptake studies were initiated by adding 500 µL of 5 µM fluorescence-labelled peptides (diluted in cell medium containing with different serum concentration). Serum concentration in incubation varied from 5 to 20% (v/v). […] A total of 10,000 cells were analysed by flow cytometry.

Data set [4] deals with GFAP. The data set can be described thus: ELISA of GFAP in hippocampus. Particulars: Ave. It counts as in vivo, ICR mice.

With `CC[C@H](C)[C@H](NC(=O)[C@H](CC(N)=O)NC(=O)[C@H](Cc1c[nH]cn1)NC(=O)[C@@H](NC(=O)[C@@H]1CCCN1C(=O)[C@H](CCCNC(=N)N)NC(=O)[C@H](Cc1ccc(O)cc1)NC(=O)CNC(=O)[C@H](CS)NC(=O)c1ccc2c(c1)C(=O)OC21c2ccc(O)cc2Oc2cc(O)ccc21)C(C)C)C(=O)N[C@@H](CCCNC(=N)N)C(=O)NCC(=O)N[C@@H](Cc1c[nH]cn1)C(=O)N[C@@H](Cc1c[nH]c2ccccc12)C(=O)N[C@@H](C)C(=O)N1CCC[C@H]1C(=O)NCC(=O)O` [FAM-CGY] (5FAM-CGYRPVHNIRGHWAPG-OH), the WBC in data set [1] is 4.32±0.53 (×109)L-1. The “effect on blood count” value in data set [1] is recorded as “no effect on blood count”. Besides, the figures for the “Iba-1 in hippocampus (Figure 6h)” value in data set [2] (4 h after i.v.), in data set [2] (24 h after i.v. (LPS 24 h)) and in data set [2] (72 h after i.v.) were 0.93, 1.02 and 0.96, respectively. Further, the “effect of serum proteins on association with endothelial cells” value in data set [3] is reported as “not affected by the presence of serum proteins”. The “GFAP in hippocampus (Figure 6i)” value in data set [4] (4 h after i.v.) was 219.00; in data set [4] (24 h after i.v. (LPS 24 h)) it was 209.59; in data set [4] (72 h after i.v.) it was 220.69.
